Results taken from patent US11702422B2, “Imidazopyridazines as modulators of IL-17” (Janssen Pharmaceutica NV, priority 2020, dated 2023).

What was measured:
[1] = molecular target: IL-17A(FLAG-Tagged): IL-17RA(His-Tagged) (Homo sapiens, UniProt Q16552, K93Q); assay: IL-17A(FLAG-Tagged): IL-17RA(His-Tagged) Binding Disruption Eu-HTRF Assay; settings: IL-17A/IL-17RA binding disruption, simple average if tested more than once
In short: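 IC50 comes from a one-site competition fit of the HTRF 665/620 nm ratio. Compound dilutions (2-fold, 22 points) were held 1 h rt with FLAG-tagged IL-17A dimer, then His-tagged IL-17RA plus Eu-cryptate anti-FLAG and D2 anti-His antibodies were added for 2 h rt.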

[2] = system: IL-17A-induced G-CSF production in human normal keratinocyte (NHK); assay: NHK Assay: IL-17A-induced G-CSF production in human normal keratinocytes; assay type: cell-based; settings: Homo sapiens, Keratinocyte, 24 h, adult normal human keratinocytes, IL-17A 5 ng/mL, simple average if tested more than once
In short: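 Titrated compound plus recombinant human IL-17A (pre-incubated 1 h, rt) were applied to adult human keratinocytes at 5 ng/mL cytokine, 0.2% DMSO. Cultures ran 24 h at 37° C, and supernatant G-CSF was measured by HTRF to derive IC50.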

Sequence of UniProt Q16552 (Q16552 with tags, fused parts or gaps K93Q): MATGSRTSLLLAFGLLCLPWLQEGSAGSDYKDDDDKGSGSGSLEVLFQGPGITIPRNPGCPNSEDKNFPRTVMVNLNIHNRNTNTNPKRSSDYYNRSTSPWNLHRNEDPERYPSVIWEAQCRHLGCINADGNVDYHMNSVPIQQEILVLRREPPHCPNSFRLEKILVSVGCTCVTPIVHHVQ

SMILES	IC50 [1] [nM]	IC50 [2] [nM]
CC(C)n1nccc1C(=O)N[C@H](c1cn2ncc([C@H](NC(=O)CCC(F)F)C3CC3)cc2n1)C1CCC(F)(F)CC1 [Example 280, N—((S)-(7-((R)-Cyclopropyl(4,4-difluorobutanamido)methyl)imidazo[1,2-b]pyridazin-2-yl)(4,4-difluorocyclohexyl)methyl)-1-isopropyl-1H-pyrazole-5-carboxamide]	54	120
CC(C)c1nonc1C(=O)N[C@H](c1cn2ncc([C@H](NC(=O)CC3CC(F)(F)C3)C3CC3)cc2n1)C1CCC(F)(F)CC1 [Example 281, N—((S)-(7-((R)-Cyclopropyl(2-(3,3-difluorocyclobutyl)acetamido)methyl)imidazo[1,2-b]pyridazin-2-yl)(4,4-difluorocyclohexyl)methyl)-4-isopropyl-1,2,5-oxadiazole-3-carboxamide]	24	26
[2H]C([2H])([2H])C([2H])([2H])n1nccc1C(=O)N[C@H](c1cn2ncc([C@H](NC(=O)CCC(F)F)C3CC3)cc2n1)C1CCC(F)(F)CC1 [Example 282, N—((S)-(7-((R)-Cyclopropyl(4,4-difluorobutanamido)methyl)imidazo[1,2-b]pyridazin-2-yl)(4,4-difluorocyclohexyl)methyl)-1-(ethyl-d5)-1H-pyrazole-5-carboxamide]	160	420
[2H]C([2H])([2H])n1nccc1C(=O)N[C@H](c1cn2ncc([C@H](NC(=O)CCC(F)F)C3CC3)cc2n1)C1CCC(F)(F)CC1 [Example 283, N—((S)-(7-((R)-Cyclopropyl(4,4-difluorobutanamido)methyl)imidazo[1,2-b]pyridazin-2-yl)(4,4-difluorocyclohexyl)methyl)-1-(methyl-d3)-1H-pyrazole-5-carboxamide]	310	690
CC(C)Oc1nocc1C(=O)N[C@H](c1cn2ncc([C@H](NC(=O)CCC(F)(F)F)C3CC3)cc2n1)C1CCC(F)(F)CC1 [Example 284, N—((S)-(7-((R)-Cyclopropyl(4,4,4-trifluorobutanamido)methyl)imidazo[1,2-b]pyridazin-2-yl)(4,4-difluorocyclohexyl)methyl)-3-isopropoxyisoxazole-4-carboxamide]	220	920
O=C(CCC(F)(F)F)N[C@@H](c1cnn2cc([C@@H](NC(=O)c3conc3OCC(F)F)C3CCC(F)(F)CC3)nc2c1)C1CC1 [Example 285, N—((S)-(7-((R)-Cyclopropyl(4,4,4-trifluorobutanamido)methyl)imidazo[1,2-b]pyridazin-2-yl)(4,4-difluorocyclohexyl)methyl)-3-(2,2-difluoroethoxy)isoxazole-4-carboxamide]	120	340
O=C(CCC(F)F)N[C@@H](c1cnn2cc([C@@H](NC(=O)c3conc3OCC(F)F)C3CCC(F)(F)CC3)nc2c1)C1CC1 [Example 286, N—((S)-(7-((R)-Cyclopropyl(4,4-difluorobutanamido)methyl)imidazo[1,2-b]pyridazin-2-yl)(4,4-difluorocyclohexyl)methyl)-3-(2,2-difluoroethoxy)isoxazole-4-carboxamide]	310	7500
O=C(CCC(F)F)N[C@@H](c1cnn2cc([C@@H](NC(=O)c3conc3COC(F)F)C3CCC(F)(F)CC3)nc2c1)C1CC1 [Example 287, N—((S)-(7-((R)-Cyclopropyl(4,4-difluorobutanamido)methyl)imidazo[1,2-b]pyridazin-2-yl)(4,4-difluorocyclohexyl)methyl)-3-((difluoromethoxy)methyl)isoxazole-4-carboxamide]	140	410
O=C(CCC(F)F)N[C@@H](c1cnn2cc([C@@H](NC(=O)c3nonc3C3CC3)C3CCC(F)(F)CC3)nc2c1)C1CC1 [Example 288, 4-Cyclopropyl-N—((S)-(7-((R)-cyclopropyl(4,4-difluorobutanamido)methyl)imidazo[1,2-b]pyridazin-2-yl)(4,4-difluorocyclohexyl)methyl)-1,2,5-oxadiazole-3-carboxamide]	71	200
O=C(CC1CC(F)(F)C1)N[C@@H](c1cnn2cc([C@@H](NC(=O)c3nonc3C3CC3)C3CCC(F)(F)CC3)nc2c1)C1CC1 [Example 289, 4-Cyclopropyl-N—((S)-(7-((R)-cyclopropyl(2-(3,3-difluorocyclobutyl)acetamido)methyl)imidazo[1,2-b]pyridazin-2-yl)(4,4-difluorocyclohexyl)methyl)-1,2,5-oxadiazole-3-carboxamide]	37	23
Cc1nonc1C(=O)N[C@H](c1cn2ncc([C@H](NC(=O)CCC3CC3(F)F)C3CC3)cc2n1)C1CCC(F)(F)CC1 (stereo partly drawn) [Example 290, N-((1S)-(7-((1R)-Cyclopropyl(3-(2,2-difluorocyclopropyl)propanamido)methyl)imidazo[1,2-b]pyridazin-2-yl)(4,4-difluorocyclohexyl)methyl)-4-methyl-1,2,5-oxadiazole-3-carboxamide]	83	220
Cc1nonc1C(=O)N[C@H](c1cn2ncc([C@H](NC(=O)CC3CCCC3(F)F)C3CC3)cc2n1)C1CCC(F)(F)CC1 (stereo partly drawn) [Example 291, N-((1S)-(7-((1R)-Cyclopropyl(2-(2,2-difluorocyclopentyl)acetamido)methyl)imidazo[1,2-b]pyridazin-2-yl)(4,4-difluorocyclohexyl)methyl)-4-methyl-1,2,5-oxadiazole-3-carboxamide]	370	4000
CC(C)Oc1nocc1C(=O)N[C@H](c1cn2ncc([C@H](NC(=O)CC3CC(F)(F)C3)C3CC3)cc2n1)C1CCC(F)(F)CC1 [Example 292, N—((S)-(7-((R)-Cyclopropyl(2-(3,3-difluorocyclobutyl)acetamido)methyl)imidazo[1,2-b]pyridazin-2-yl)(4,4-difluorocyclohexyl)methyl)-3-isopropoxyisoxazole-4-carboxamide]	220	870
O=C(CC1CC(F)(F)C1)N[C@@H](c1cnn2cc([C@@H](NC(=O)c3conc3OCC(F)F)C3CCC(F)(F)CC3)nc2c1)C1CC1 [Example 293, N—((S)-(7-((R)-Cyclopropyl(2-(3,3-difluorocyclobutyl)acetamido)methyl)imidazo[1,2-b]pyridazin-2-yl)(4,4-difluorocyclohexyl)methyl)-3-(2,2-difluoroethoxy)isoxazole-4-carboxamide]	160	540
O=C(CC1CC(F)(F)C1)N[C@@H](c1cnn2cc([C@@H](NC(=O)c3conc3COC(F)F)C3CCC(F)(F)CC3)nc2c1)C1CC1 [Example 294, N—((S)-(7-((R)-Cyclopropyl(2-(3,3-difluorocyclobutyl)acetamido)methyl)imidazo[1,2-b]pyridazin-2-yl)(4,4-difluorocyclohexyl)methyl)-3-((difluoromethoxy)methyl)isoxazole-4-carboxamide]	86	38
O=C(CC12CC(F)(C1)C2)N[C@@H](c1cnn2cc([C@@H](NC(=O)c3conc3OCC(F)F)C3CCC(F)(F)CC3)nc2c1)C1CC1 [Example 295, N—((S)-(7-((R)-Cyclopropyl(2-(3-fluorobicyclo[1.1.1]pentan-1-yl)acetamido)methyl)imidazo[1,2-b]pyridazin-2-yl)(4,4-difluorocyclohexyl)methyl)-3-(2,2-difluoroethoxy)isoxazole-4-carboxamide]	150	710
